From PubChem BioAssay (NCI)
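How tested: cells in 96-well plates exposed to compound for 48 hours at five concentrations. The concentration for 50% growth inhibition is given as GI50. TGI: concentration producing complete growth inhibition.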

Legend:
Assay in all cases: NCI tumour cell line growth inhibition, 48 h
CAKI-1 renal = test system: CAKI-1 renal
CCRF-CEM leukemia = test system: CCRF-CEM leukemia
HL-60(TB) leukemia = test system: HL-60(TB) leukemia
HS 578T breast = test system: HS 578T breast
MDA-N = test system: MDA-N
MOLT-4 leukemia = test system: MOLT-4 leukemia
NCI-H23 lung = test system: NCI-H23 lung
NCI-H522 lung = test system: NCI-H522 lung
SF-295 CNS = test system: SF-295 CNS
SK-MEL-2 melanoma = test system: SK-MEL-2 melanoma
SK-OV-3 ovarian = test system: SK-OV-3 ovarian
SNB-19 CNS = test system: SNB-19 CNS
SR leukemia = test system: SR leukemia
T-47D breast = test system: T-47D breast
TK-10 renal = test system: TK-10 renal
SN12C renal = test system: SN12C renal

Row | Compound | TGI (CAKI-1 renal) [µM] | TGI (CCRF-CEM leukemia) [µM] | TGI (HL-60(TB) leukemia) [µM] | TGI (HS 578T breast) [µM] | TGI (MDA-N) [µM] | TGI (MOLT-4 leukemia) [µM] | TGI (NCI-H23 lung) [µM] | TGI (NCI-H522 lung) [µM] | TGI (SF-295 CNS) [µM] | TGI (SK-MEL-2 melanoma) [µM] | TGI (SK-OV-3 ovarian) [µM] | TGI (SNB-19 CNS) [µM] | TGI (SR leukemia) [µM] | TGI (T-47D breast) [µM] | TGI (TK-10 renal) [µM] | TGI (SN12C renal) [µM] | GI50 (HL-60(TB) leukemia) [µM] | GI50 (MDA-N) [µM] | GI50 (NCI-H522 lung) [µM] | GI50 (SR leukemia) [µM]
1 | c1ccc(C2=Nc3nc4ccccc4n3C(c3ccccc3)C2)cc1 (configuration not stated) | > 100 | > 100 | > 100 | > 100 | > 100 | > 100 | > 100 | > 100 | > 100 | > 100 | > 100 | > 100 | > 100 | > 100 | > 100 |  |  |  |  | 
2 | CCOC(=O)/C(=C\c1ccc(N(C)C)cc1)S(=O)(=O)C(F)(F)C(F)(F)C(F)(F)C(F)(F)F | > 100 | > 100 | > 100 | > 100 | > 100 | > 100 | > 100 | > 100 | > 100 | > 100 | > 100 | > 100 | > 100 | > 100 | > 100 | > 100 |  |  |  | 
3 | O=c1c(SSc2coc3cc(F)ccc3c2=O)coc2cc(F)ccc12 | 43.3 | 37.9 | 54.7 | 68 | 34.3 | 69.6 | > 100 | 47.3 | > 100 |  |  | > 100 | > 100 | 46.6 | 66.5 | 36.6 |  |  |  | 
4 | CC(C)C(C/C=C1\CC(CO)(COC(=O)c2ccccc2)OC1=O)C(C)C (configuration not stated) | 33.8 | 44.1 |  | 33.4 | 57.8 | 42.6 | 38 | 38.5 | 28.7 | > 100 | 87.9 | 31.8 | > 100 | > 100 | 34.2 | 31.1 |  |  |  | 
5 | COc1ccc2cc1Oc1ccc(cc1)C(Sc1ccccc1)CCOC(=O)CC2 (configuration not stated) | > 100 | > 100 | > 100 | > 100 | > 100 | > 100 | > 100 | > 100 | > 100 | > 100 | > 100 | > 100 | > 100 | > 100 | > 100 | > 100 |  |  |  | 
6 | Clc1cc2c(c(CSC3=NCN(CC4CC4)CN3)c1)OCOC2 | > 100 | 27.2 | 33.7 | > 100 | 38.6 | 64 | 39.3 | 30.1 | > 100 | 35.4 | 67.1 | > 100 | 42.2 | 62.2 | 40.8 | > 100 |  |  |  | 
7 | Cc1ccc(OCC2OC(n3cnc4nc(Cl)nc(Cl)c43)CC2Oc2ccc(C)cc2)cc1 (configuration not stated) | 9.75 | > 23.1 | 3.94 | 54.6 | 13.7 | 5.76 | 24.5 | 4.31 | 30.6 | 18.1 | > 89.5 | 30.1 | 5.65 | 30.7 | 28.7 | 20.5 |  |  |  | 
8 | ClC(Cl)(Cl)C1=N[C@H]2[C@H](Br)[C@@H]3O[C@@H](c4ccccc4)[C@H](c4ccccc4)O[C@@H]3[C@H]2O1 | 32.6 | 47.2 |  | 63.7 | 38 | 45.7 | 42.3 | 26.7 | 34.3 | 31.3 | 40.5 | 63.9 | 52.2 | > 100 | 37.5 | 37.2 |  |  |  | 
9 | Cc1c(C(=O)N2CCN(c3ccc([N+](=O)[O-])cc3)CC2)[n+](=O)c2cc(Cl)c(Cl)cc2n1[O-] | 64.3 | > 100 | > 100 | 93.6 | > 100 | > 100 | 32 | 32.7 | 34.2 | > 100 | 29.5 | 42.1 | 61.2 | 45 | 39.3 | 38.2 |  |  |  | 
10 | NC(=O)c1nnc2cc(F)ccc2c1N | > 100 | > 100 | > 100 | > 100 | > 100 | > 100 | > 100 | > 100 | > 100 | > 100 | > 100 | > 100 | > 100 | > 100 | > 100 | > 100 |  |  |  | 
11 | C=CCOc1ccccc1N=N/C(C#N)=N\Nc1ccccc1OCC=C | > 100 | > 100 | > 100 | > 100 | 94.7 | > 100 | > 100 | > 100 | > 100 | > 100 | > 100 | > 100 | > 100 | > 100 | > 100 | > 100 |  |  |  | 
12 | CCOC(=O)c1c(Br)c(-c2ccc(Br)cc2)c(Br)n1C | 75.2 | 31.5 | 16.6 | > 100 | 32.5 | 37.6 | > 100 | 44.5 | 45.6 |  | > 100 | > 100 | 26.1 | > 100 | > 100 | 84 | 5.24 | 5.64 | 11.2 | 10
13 | CC(C)[C@@H]1CC[C@@H](C)C[C@H]1OC(=O)/C=C1/C2C=CC(O2)C1C(=O)O[C@@H]1C[C@H](C)CC[C@H]1C(C)C (some centres not stated) | > 100 | > 100 | > 100 | > 100 | > 100 | > 100 | > 100 | > 100 | > 100 |  | > 100 | > 100 | > 100 | > 100 | > 100 | > 100 |  |  |  | 
14 | CCC1C(c2cccc(OC)c2O)c2cc3c(cc2OC1N1CCCC1)OCO3 (configuration not stated) |  | 46.7 |  | 29.9 | 19.7 | 45 | > 100 | 35.4 | 50.8 | 43.5 |  | 46.9 | 50.4 | 68.7 | 82.1 | 38.3 |  |  |  | 
15 | CCCCCC(=O)N[C@@H](c1ccccc1)C(O)C(=O)OC1C[C@@]2(O)C(OC(=O)c3ccccc3)C3[C@](C)(C(=O)[C@H](O)C(=C1C)C2(C)C)C(OC1OCC(O)C(O)C1O)C[C@H]1OC[C@@]31OC(C)=O (some centres not stated) |  | > 100 | 7.79 | 8.23 | 1.03 | > 100 | > 100 | 3.92 | > 93.7 |  | 57.2 | > 100 | 40.2 | > 100 | > 100 | > 100 |  |  |  | 
